From patent US7612084B2, “Amine derivatives for the treatment of asthma and COPD” (Pfizer Inc, priority 2006, dated 2009)
pEC50, pKi: −log10 of the molar value. Where a name gives a salt, the structure may show the parent alone.

Experiments:
[1] = target: human adrenergic B2 receptor (Homo sapiens, UniProt P07550); assay: Whole cell luciferase reporter assay in CHO cells expressing the hB2 receptor (agonist potency); assay type: cell-based; details: 4 h incubation, read-out: EC50 - beta2
Procedure: Functional Assessment of Agonist Potency and Efficacy Using a Whole Cell Luciferase Reporter Assay in CHO Cells Expressing the hB2 Receptor.
CHO (Chinese Hamster Ovary) cells recombinantly expressing the human adrenergic B2 receptor and transfected with a luciferase enzyme reporter gene were maintained in growth media composed of F12:DMEM (Sigma D6421) containing 10% Foetal Bovine Serum (FBS: Sigma F03921) 10 μg/ml puromycin (Sigma N277698), 0.5 mg/ml Geneticin G418 (Sigma G7034) and 2 mM L-glutamine (Sigma G7513). The cells were kept in sterile conditions at 37° C., in an atmosphere containing 5% CO2.
hB2 Luciferase Assay Protocol
Cells were harvested for assay when they reached 80-90% confluency using enzyme free cell Dissociation Solution (Life technologies 13151-014) incubated with the cells for 5 min at 37° C. in an atmosphere containing 5% CO2. Detached cells were collected in warmed growth media (composition described above), and re-suspended in assay media (F12:DMEM (Sigma D6421) containing 1% Foetal Bovine Serum (FBS: Sigma F03921), 10 μg/ml puromycin (Sigma N277698), 0.5 mg/ml Geneticin G418 (Sigma G7034) and 2 mM L-glutamine (Sigma G7513))to give a viable cell concentration of 1×10^6 cells/ml. 10 ul of this suspension was added to each well of a tissue culture treated low volume 384 well plate (Greiner788073) and the plate incubated in an atmosphere containing 5% CO2 at 37° C. for 2 h. Concentration ranges of test compounds were prepared in phosphate Buffered Saline containing 0.05% pluronic-F127 (Sigma P2443) and 2.5% DMSO. 2 μl of each test concentration were added to the appropriate 384 plate well and returned to the incubator for a further 4 h. At the end of the incubation period 4 μl of Steady-Glo reagent (Steady-Glo Luciferase assay system (Promega E2520) was added to each well and the plate read immediately in a Leadseeker Plate reader (Amersham Bioscience) using a 660 nm filter. Concentration effect curves were plotted and EC50 values generated using a 4-parameter sigmoid fit using an in-house data analysis programme. Isoprenaline was run in every assay as a reference standard.

[2] = target: human muscarinic M3 receptor (Homo sapiens, UniProt P20309); assay: Whole cell β-lactamase reporter assay in CHO cells expressing the hM3 receptor (antagonist activity); assay type: cell-based; details: 80 nM carbamyl choline, IC50 converted to Ki by Cheng-Prusoff
Procedure: Functional Assessment of Antagonist Activity Using a Whole Cell β-Lactamase Reporter Assay in CHO Cells Expressing the hM3 Receptor.
CHO (Chinese Hamster Ovary) cells recombinantly expressing the human muscarinic M3 receptor were transfected with the NFAT_β-Lac_Zeo plasmid. Cells were grown in DMEM with Glutamax-1, supplemented with 25 mM HEPES(Life Technologies 32430-027), containing 10% FCS (Foetal Calf Serum; Sigma F-7524), […] Sodium pyruvate (Sigma S-8636), NEAA (non-Essential Amino Acids; Invitrogen 11140-035) and […] Zeocin (Invitrogen R250-01).
Cells were harvested for assay when they reached 80-90% confluency using enzyme free cell Dissociation Solution (Life technologies 13151-014) incubated with the cells for 5 min at 37° C. in an atmosphere containing 5% CO2. Detached cells were collected in warmed growth media and centrifuged at 200 rpm for 10 min, washed in PBS (Phosphate Buffered Saline; Life Technologies 14190-094) and centrifuged again as just described. The cells were re-suspended at 2×10^5 cells/ml in growth medium (composition as described above). 20 μl of this cell suspension was added to each well of a 384 well black clear bottomed plate (Greiner Bio One 781091-PFI). The assay buffer used was PBS supplemented with 0.05% Pluronic F-127 (Sigma 9003-11-6) and 2.5% DMSO. Muscarinic M3 receptor signalling was stimulated using 80 nM carbamyl choline (Aldrich N240-9) incubated with the cells for 4 h at 37° C./5% CO2 and monitored at the end of the incubation period using a Tecan SpectraFluor+plate reader (λ−excitation 405 nm, emission 450 nm and 503 nm). Compounds under test were added to the assay at the beginning of the 4 h incubation period and compound activity measured as the concentration dependent inhibition of the carbamyl choline induced signal. Inhibition curves were plotted and IC50 values generated using a 4-parameter sigmoid fit and converted to Ki values using the Cheng-Prusoff correction and the KD value for carbamyl choline in the assay.

Sequence of human muscarinic M3 receptor (P20309 whole entry): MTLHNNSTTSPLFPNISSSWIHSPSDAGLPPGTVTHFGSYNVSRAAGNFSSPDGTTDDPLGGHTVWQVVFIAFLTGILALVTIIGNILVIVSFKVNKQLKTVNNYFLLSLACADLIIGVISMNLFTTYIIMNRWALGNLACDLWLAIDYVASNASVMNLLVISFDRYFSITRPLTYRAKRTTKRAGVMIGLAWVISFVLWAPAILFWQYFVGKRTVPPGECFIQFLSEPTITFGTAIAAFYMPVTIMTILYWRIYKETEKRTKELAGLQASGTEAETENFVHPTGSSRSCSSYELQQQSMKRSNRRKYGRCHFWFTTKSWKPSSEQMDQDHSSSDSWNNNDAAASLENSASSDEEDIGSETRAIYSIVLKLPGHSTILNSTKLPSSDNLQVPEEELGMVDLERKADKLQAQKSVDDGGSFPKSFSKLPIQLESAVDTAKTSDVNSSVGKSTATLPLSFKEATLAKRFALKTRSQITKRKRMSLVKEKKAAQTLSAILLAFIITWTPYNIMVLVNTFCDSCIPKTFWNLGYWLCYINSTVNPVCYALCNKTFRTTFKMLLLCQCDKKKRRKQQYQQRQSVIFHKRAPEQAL
Sequence of human adrenergic B2 receptor (P07550 whole entry): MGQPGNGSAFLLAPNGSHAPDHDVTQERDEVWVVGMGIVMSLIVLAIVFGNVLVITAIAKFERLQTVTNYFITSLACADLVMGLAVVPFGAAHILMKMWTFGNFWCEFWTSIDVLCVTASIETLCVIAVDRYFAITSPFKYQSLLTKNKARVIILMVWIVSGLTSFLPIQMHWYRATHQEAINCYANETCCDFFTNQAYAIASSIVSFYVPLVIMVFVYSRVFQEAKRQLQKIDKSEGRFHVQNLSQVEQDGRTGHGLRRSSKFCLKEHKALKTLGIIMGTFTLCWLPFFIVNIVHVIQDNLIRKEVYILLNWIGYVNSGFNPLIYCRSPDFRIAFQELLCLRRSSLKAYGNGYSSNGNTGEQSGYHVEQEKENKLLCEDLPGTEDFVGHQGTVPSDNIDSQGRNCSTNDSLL

Row | pEC50 [1] | pKi [2] | SMILES
1 | 9.70 | 9.52 | CC(C)N(CC[C@H](c1ccccc1)c1cc(CCOc2ccc(CCNC[C@H](O)c3ccc(O)c(NS(C)(=O)=O)c3)cc2)ccc1O)C(C)C [Example 19, N-{5-[(1R)-2-({2-[4-(2-{3-[(1R)-3-(diisopropylamino)-1-phenylpropyl]-4-hydroxyphenyl}ethoxy)phenyl]ethyl}amino)-1-hydroxyethyl]-2-hydroxyphenyl}methanesulfonamide succinate salt]
2 | 10.55 | 9.41 | CC(C)N(CC[C@H](c1ccccc1)c1cc(CCOc2ccc(CC(C)(C)NC[C@H](O)c3ccc(O)c4[nH]c(=O)ccc34)cc2)ccc1O)C(C)C [Example 20, 5-[(1R)-2-({2-[4-(2-{3-[(1R)-3-(diisopropylamino)-1-phenylpropyl]-4-hydroxyphenyl}ethoxy)phenyl]-11-dimethylethyl}amino)-1-hydroxyethyl]-8-hydroxyquinolin-2(1H)-one]
